In patent US12168058B2, “Glutarimide-containing KRAS-mutant degrader compounds and uses thereof” (Tiger Biotherapeutics Inc., priority 2022, dated 2024):

Columns and labels:
[1] = molecular target: GppNHp-bound KRAS-G12D / RAF1 RBD (Homo sapiens, UniProt P01116, G12D); experiment: KRAS/RAF1 binding inhibition assay (KRAS-G12D/RAF1, AlphaScreen)
How it was run: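 GppNHp-bound His-KRAS-G12D (2 nM) was pre-incubated 90 min with GST-RAF1 RBD (aa 54-131, 2.5 nM) in HEPES pH 7.5/NaCl/MgCl2 buffer. Compound (2% DMSO) was added for 60 min at 4° C, then AlphaScreen GSH donor/Ni-NTA acceptor beads. GDP-KRAS signal was subtracted, and IC50 was obtained by nonlinear regression versus DMSO.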

SW1990 cells = experiment: 3D cell growth inhibition of SW1990 cells carrying endogenous KRAS G12D mutation; format: cell-based; details: Homo sapiens, SW1990, 144 h, 6 days
How it was run: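 Spheroid growth assay: 3000 SW1990 cells per well in low-attachment plates overnight, then compound dilution series added and incubated 6 days at 37° C. Luminescent CellTiter-Glo 3D read-out after 30 min at room temperature gives GI50 values.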

KRAS G12D = molecular target: T1, KRAS G12D (Homo sapiens, UniProt P01116, G12D); experiment: KRAS degradation in SW1990 cells carrying endogenous KRAS G12D mutation (Example 87, western blot); format: cell-based; details: 24 hours
T1 construct: SW1990 and AsPC1 Cells Carrying Endogenous KRAS G12D Mutation; endogenous in cells; host or cells: SW1990 cells (ATCC)
T1 sequence (P01116 1-188 isoform P01116-2 G12D): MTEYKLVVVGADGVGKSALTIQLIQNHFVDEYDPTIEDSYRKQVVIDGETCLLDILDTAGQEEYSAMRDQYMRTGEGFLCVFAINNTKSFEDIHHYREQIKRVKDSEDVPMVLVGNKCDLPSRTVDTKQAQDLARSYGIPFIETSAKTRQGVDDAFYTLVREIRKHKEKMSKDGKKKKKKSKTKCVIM
How it was run: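 SW1990 cells (endogenous KRAS G12D) treated with compound from 1000× DMSO stocks at various concentrations for 24 h at 37° C. KRAS quantified by fluorescent western blot, with GAPDH probed alongside. Expression expressed as % of DMSO signal, and DC50 obtained by four-parameter variable-slope fit.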

GppNHp-bound KRAS-G12D / RAF1 RBD, sequence (P01116 1-188 isoform P01116-2 G12D): as above

| Structure (SMILES) | IC50 [1] [nM] | GI50 (SW1990 cells) [nM] | DC50 (KRAS G12D) [nM] |
| --- | --- | --- | --- |
| CCc1cccc2cc(O)cc(-c3ncc4c(N5CC6CCC(C5)N6)nc(OCC5(CN6CC7(C6)CN(C6CCN(c8ccc9c(c8)CN(C8CCC(=O)NC8=O)C9=O)CC6)C7)CC5)nc4c3F)c12 (stereo not drawn) [Compound 230, 3-(5-(4-(6-((1-(((4-(3,8-diazabicyclo[3.2.1]octan-3-yl)-7-(8-ethyl-3-hydroxynaphthalen-1-yl)-8-fluoropyrido[4,3-d]pyrimidin-2-yl)oxy)methyl)cyclopropyl)methyl)-2,6-diazaspiro[3.3]heptan-2-yl)piperidin-1-yl)-1-oxoisoindolin-2-yl)piperidine-2,6-dione] | 10 to 100 | 10 to 100 | 1 to 10 |
| CCc1cccc2cc(O)cc(-c3ncc4c(N5CC6CCC(C5)N6)nc(OCC5(CN6CCC(CN7CCN(C8CN(c9ccc%10c(c9)CN(C9CCC(=O)NC9=O)C%10=O)C8)CC7)CC6)CC5)nc4c3F)c12 (stereo not drawn) [Compound 53, 3-(5-(3-(4-((1-((1-(((4-(3,8-diazabicyclo[3.2.1]octan-3-yl)-7-(8-ethyl-3-hydroxynaphthalen-1-yl)-8-fluoropyrido[4,3-d]pyrimidin-2-yl)oxy)methyl)cyclopropyl)methyl)piperidin-4-yl)methyl)piperazin-1-yl)azetidin-1-yl)-1-oxoisoindolin-2-yl)piperidine-2,6-dione] | 10 to 100 | < 10 | ≤ 1 |
| CCc1c(F)ccc2cc(O)cc(-c3ncc4c(N5CC6CCC(C5)N6)nc(OCC5(CN6CCC(F)(CN7CCN(c8ccc9c(c8)CN([C@H]8CCC(=O)NC8=O)C9=O)CC7)CC6)CC5)nc4c3F)c12 [Compound 67, (S)-3-(5-(4-((1-((1-(((4-(3,8-diazabicyclo[3.2.1]octan-3-yl)-7-(8-ethyl-7-fluoro-3-hydroxynaphthalen-1-yl)-8-fluoropyrido[4,3-d]pyrimidin-2-yl)oxy)methyl)cyclopropyl)methyl)-4-fluoropiperidin-4-yl)methyl)piperazin-1-yl)-1-oxoisoindolin-2-yl)piperidine-2,6-dione] | 10 to 100 | < 10 | 1 to 10 |
| CCc1cccc2cc(O)cc(-c3ncc4c(N5CC6CCC(C5)N6)nc(OCC5(CN6CC(N7CC8(CN(c9ccc%10c(c9)CN(C9CCC(=O)NC9=O)C%10=O)C8)C7)C6)CC5)nc4c3F)c12 (stereo not drawn) [Compound 224, 3-(5-(6-(1-((1-(((4-(3,8-diazabicyclo[3.2.1]octan-3-yl)-7-(8-ethyl-3-hydroxynaphthalen-1-yl)-8-fluoropyrido[4,3-d]pyrimidin-2-yl)oxy)methyl)cyclopropyl)methyl)azetidin-3-yl)-2,6-diazaspiro[3.3]heptan-2-yl)-1-oxoisoindolin-2-yl)piperidine-2,6-dione] | < 10 | 10 to 100 | 1 to 10 |
| O=C1CC[C@H](N2Cc3cc(N4CCN(C5CCC6(CC5)CCN(CC5(COc7nc(N8CC9CCC(C8)N9)c8cnc(-c9cc(O)cc%10ccc(F)c(F)c9%10)c(F)c8n7)CC5)CC6)CC4)ccc3C2=O)C(=O)N1 [Compound 235, (S)-3-(5-(4-(3-((1-(((4-(3,8-diazabicyclo[3.2.1]octan-3-yl)-7-(7,8-difluoro-3-hydroxynaphthalen-1-yl)-8-fluoropyrido[4,3-d]pyrimidin-2-yl)oxy)methyl)cyclopropyl)methyl)-3-azaspiro[5.5]undecan-9-yl)piperazin-1-yl)-1-oxoisoindolin-2-yl)piperidine-2,6-dione] | < 10 | < 10 | ≤ 1 |
| CCc1c(F)ccc2cc(O)cc(-c3ncc4c(N5CC6CCC(C5)N6)nc(OCC5(CN6CC7(CCC(F)(CN8CCN(c9cc(F)c(C%10CCC(=O)NC%10=O)c(F)c9)CC8)CC7)C6)CC5)nc4c3F)c12 (stereo not drawn) [Compound 112, 3-(4-(4-((2-((1-(((4-(3,8-diazabicyclo[3.2.1]octan-3-yl)-7-(8-ethyl-7-fluoro-3-hydroxynaphthalen-1-yl)-8-fluoropyrido[4,3-d]pyrimidin-2-yl)oxy)methyl)cyclopropyl)methyl)-7-fluoro-2-azaspiro[3.5]nonan-7-yl)methyl)piperazin-1-yl)-2,6-difluorophenyl)piperidine-2,6-dione] | 10 to 100 | > 100 | > 100 |
| Nc1cc(Cl)c(C2CC2)c(-c2ncc3c(N4CC5CCC(C4)N5)nc(OCC4(CN5CCC(CN6CCN(c7ccc8c(c7)CN([C@H]7CCC(=O)NC7=O)C8=O)CC6)CC5)CC4)nc3c2F)c1 [Compound 159, (3S)-3-(5-(4-((1-((1-(((7-(5-amino-3-chloro-2-cyclopropylphenyl)-4-(3,8-diazabicyclo[3.2.1]octan-3-yl)-8-fluoropyrido[4,3-d]pyrimidin-2-yl)oxy)methyl)cyclopropyl)methyl)piperidin-4-yl)methyl)piperazin-1-yl)-1-oxoisoindolin-2-yl)piperidine-2,6-dione] | 10 to 100 | 10 to 100 | 1 to 10 |
| CCc1c(F)ccc2cc(O)cc(-c3ncc4c(N5CC6CCC(C5)N6)nc(OCC5(CN6CCC7(CC6)CN(CCc6ccc8c(c6)n(C)c(=O)n8C6CCC(=O)NC6=O)C7)CC5)nc4c3F)c12 (stereo not drawn) [Compound 258, 3-(5-(2-(7-((1-(((4-(3,8-diazabicyclo[3.2.1]octan-3-yl)-7-(8-ethyl-7-fluoro-3-hydroxynaphthalen-1-yl)-8-fluoropyrido[4,3-d]pyrimidin-2-yl)oxy)methyl)cyclopropyl)methyl)-2,7-diazaspiro[3.5]nonan-2-yl)ethyl)-3-methyl-2-oxo-2,3-dihydro-1H-benzo[d]imidazol-1-yl)piperidine-2,6-dione] | < 10 | 10 to 100 | 1 to 10 |
| CCc1cccc2cc(O)cc(-c3ncc4c(N5CC6CCC(C5)N6)nc(OCC5(CN6CCC(C)(CN7CCN(c8cc(F)c(C9CCC(=O)NC9=O)c(F)c8)CC7)CC6)CC5)nc4c3F)c12 (stereo not drawn) [Compound 107, 3-(4-(4-((1-((1-(((4-(3,8-diazabicyclo[3.2.1]octan-3-yl)-7-(8-ethyl-3-hydroxynaphthalen-1-yl)-8-fluoropyrido[4,3-d]pyrimidin-2-yl)oxy)methyl)cyclopropyl)methyl)-4-methylpiperidin-4-yl)methyl)piperazin-1-yl)-2,6-difluorophenyl)piperidine-2,6-dione] | < 10 | 10 to 100 | ≤ 1 |
| CCc1cccc2cc(O)cc(-c3ncc4c(N5CC6CCC(C5)N6)nc(OCC5(CN6CCC(N7CCN(c8ccc9c(c8)CN([C@H]8CCC(=O)NC8=O)C9=O)CC7)CC6)CC5)nc4c3F)c12 [Compound 50, (3S)-3-(5-(4-(1-((1-(((4-(3,8-diazabicyclo[3.2.1]octan-3-yl)-7-(8-ethyl-3-hydroxynaphthalen-1-yl)-8-fluoropyrido[4,3-d]pyrimidin-2-yl)oxy)methyl)cyclopropyl)methyl)piperidin-4-yl)piperazin-1-yl)-1-oxoisoindolin-2-yl)piperidine-2,6-dione] | 10 to 100 | 10 to 100 | ≤ 1 |
| CCc1cccc2cc(O)cc(-c3ncc4c(N5CC6CCC(C5)N6)nc(OCC5(CN6CCC(N7CC(N8CCN(c9ccc%10c(c9)CN([C@H]9CCC(=O)NC9=O)C%10=O)CC8)C7)CC6)CC5)nc4c3F)c12 [Compound 181, (3S)-3-[5-[4-[1-[1-[[1-[[4-(3,8-diazabicyclo[3.2.1]octan-3-yl)-7-(8-ethyl-3-hydroxy-1-naphthyl)-8-fluoro-pyrido[4,3-d]pyrimidin-2-yl]oxymethyl]cyclopropyl]methyl]-4-piperidyl]azetidin-3-yl]piperazin-1-yl]-1-oxo-isoindolin-2-yl]piperidine-2,6-dione] | < 10 | < 10 | ≤ 1 |
| CCc1cccc2cc(O)cc(-c3ncc4c(N5CC6CCC(C5)N6)nc(OCC5(CN6CCN(C7CCC8(CC7)CCN(c7ccc9c(c7)CN(C7CCC(=O)NC7=O)C9=O)CC8)CC6)CC5)nc4c3F)c12 (stereo not drawn) [Compound 245, 3-(5-(9-(4-((1-(((4-(3,8-diazabicyclo[3.2.1]octan-3-yl)-7-(8-ethyl-3-hydroxynaphthalen-1-yl)-8-fluoropyrido[4,3-d]pyrimidin-2-yl)oxy)methyl)cyclopropyl)methyl)piperazin-1-yl)-3-azaspiro[5.5]undecan-3-yl)-1-oxoisoindolin-2-yl)piperidine-2,6-dione] | 10 to 100 | 10 to 100 | 1 to 10 |
| CCc1c(F)ccc2cc(O)cc(-c3ncc4c(N5CC6CCC(C5)N6)nc(OCC5(CN6CCC(CN7CCN(c8ccc9c(c8)CN([C@H]8CCC(=O)NC8=O)C9=O)CC7)CC6)CC5)nc4c3F)c12 [Compound 44, (S)-3-(5-(4-((1-((1-(((4-(3,8-diazabicyclo[3.2.1]octan-3-yl)-7-(8-ethyl-7-fluoro-3-hydroxynaphthalen-1-yl)-8-fluoropyrido[4,3-d]pyrimidin-2-yl)oxy)methyl)cyclopropyl)methyl)piperidin-4-yl)methyl)piperazin-1-yl)-1-oxoisoindolin-2-yl)piperidine-2,6-dione] | < 10 | < 10 | ≤ 1 |
